# Results published in patent US20030162777A1, “Novel N-acylated heterocycles” (Recordati S.A., priority 2001, published 2003).
# Target: T1, human 5HT1A-serotonergic receptor (Homo sapiens, UniProt P08908)
# T1 construct: expressed in transfected cells; host or cells: HeLa (human cell line), stably transfected; cell membranes used
# T1 sequence (P08908 1-422): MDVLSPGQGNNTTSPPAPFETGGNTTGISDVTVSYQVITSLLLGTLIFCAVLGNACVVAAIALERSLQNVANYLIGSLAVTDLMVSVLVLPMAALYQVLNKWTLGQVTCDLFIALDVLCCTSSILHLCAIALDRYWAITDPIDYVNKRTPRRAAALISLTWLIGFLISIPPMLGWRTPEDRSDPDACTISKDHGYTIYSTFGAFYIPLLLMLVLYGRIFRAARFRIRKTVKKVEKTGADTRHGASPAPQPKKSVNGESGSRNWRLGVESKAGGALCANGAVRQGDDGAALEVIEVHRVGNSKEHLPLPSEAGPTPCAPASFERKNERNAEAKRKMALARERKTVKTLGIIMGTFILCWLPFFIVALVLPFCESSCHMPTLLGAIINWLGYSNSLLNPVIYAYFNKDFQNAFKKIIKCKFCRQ
# Assay: Radioligand binding to recombinant 5-HT1A receptors
# Conditions: [3H]8-OH-DPAT 1 nM, membranes of HeLa cells with human 5-HT1A receptor; Ki from IC50 by Cheng & Prusoff; read-out: Binding affinity for 5HT1A receptors, Ki
# Summary of the method: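 Displacement of 1 nM [3H]8-OH-DPAT (30 min, 30 °C, Tris-HCl pH 7.4 with MgCl2 and pargyline) from recombinant human 5-HT1A in transfected HeLa membranes, stopped by filtration. Specific binding defined against 10 μM 5-HT; IC50 by nonlinear fitting, then Ki by Cheng–Prusoff.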
row,Compound,Ki [µM]
1,"CN(CCOc1ccccc1OCC(F)(F)F)CC1CCc2ccccc2N1C(=O)C1CCCCC1 (stereo not drawn) [Example 72A85, N-(1-Cyclohexanecarbonyl-1,2,3,4-tetrahydroquinolin-2-ylmethyl)-2-[2-(2,2,2-trifluoroethoxy)phenoxy]ethylmethylamine]",0.0036
2,"COc1ccc(C(=O)N2c3cccc(Cl)c3CCC2CN2CCN(c3ccc(F)cc3OC)CC2)cc1 (stereo not drawn) [Example 56, 1-[5-Chloro-1-(4-methoxybenzoyl)-1,2,3,4-tetrahydroquinoline-2-ylmethyl]-4-(4-fluoro-2-methoxyphenyl)piperazine]",0.0036
3,"O=C(c1c(F)cccc1F)N1c2ccccc2CCC1CN1CCN(c2cccc3[nH]ccc23)CC1 (stereo not drawn) [Example 68A28, 1-[1-(2,6-Difluorobenzoyl)-1,2,3,4-tetrahydroquinoline-2-ylmethyl]-4-(4-indolyl)piperazine]",0.0344
4,"O=C(C1CCCCC1)N1c2ccccc2CCC1CN1CCN(c2cccc(Cl)c2)CC1 (stereo not drawn) [Example 72A23, 1-(3-Chlorophenyl)-4-(1-cyclohexanecarbonyl-1,2,3,4-tetrahydroquinolin-2-ylmethyl)piperazine]",0.0246
5,"CC(C)(C)OC(=O)N1CCC[C@H]1C(=O)N1c2ccccc2CCC1CN1CCN(c2cccc3[nH]ccc23)CC1 (stereo partly drawn) [Example 71A5, 1-[1-(1-tert-Butoxycarbonyl-(2S)-pyrrolidin-2yl)carbonyl-1,2,3,4-tetrahydroquinoline-2-ylmethyl]-4-(4-indolyl)piperazine]",0.045
6,"CN(CCOc1ccccc1Cl)CC1CCc2ccccc2N1C(=O)C1CCCCC1 (stereo not drawn) [Example 72A84, N-(1-Cyclohexanecarbonyl-1,2,3,4-tetrahydroquinolin-2-ylmethyl)-2-(2-chlorophenoxy)ethylmethylamine]",0.0157
7,"O=C(c1ccc[nH]1)N1c2ccccc2CCC1CN1CCN(c2cccc3c2OCCO3)CC1 (stereo not drawn) [Example 76A2, 1-(2,3-Dihydrobenzo[1,4]dioxin-5-yl)-4-[1-(2-pyrrolylcarbonyl)-1,2,3,4-tetrahydroquinolin-2-ylmethyl]piperazine]",0.0051
8,"O=C(c1ccc(C(F)(F)F)cc1)N1c2ccccc2CCC1CN1CCN(c2cccc3[nH]ccc23)CC1 (stereo not drawn) [Example 68A23, 1-(4-Indolyl)-4-[1-(4-trifluoromethylbenzoyl)-1,2,3,4-tetrahydroquinoline-2-ylmethyl]piperazine]",0.0428
9,"O=C(C1CCCCC1)N1c2ccc(O)cc2CCC1CN1CCN(c2cccc3[nH]ccc23)CC1 (stereo not drawn) [Example 50, 1-(1-Cyclohexanecarbonyl-6-hydroxy-1,2,3,4-tetrahydroquinoline-2-ylmethyl)-4-(4-indolyl)piperazine]",0.041
10,"O=C(Cc1ccccc1F)N1c2ccccc2CCC1CN1CCN(c2cccc3[nH]ccc23)CC1 (stereo not drawn) [Example 68A63, 1-(4-Indolyl)-4-[1-[2-(2-fluorophenylacetyl)]-1,2,3,4-tetrahydroquinoline-2-ylmethyl]piperazine]",0.0087
11,"COc1cccc(N2CCN(CC3CCc4ccccc4N3C(=O)C3CCCCC3)CC2)n1 (stereo not drawn) [Example 35A35, 1-(1-Cyclohexanecarbonyl-1,2,3,4-tetrahydroquinoline-2-ylmethyl)-4-(6-methoxy-2-pyridinyl)piperazine]",0.0062
12,"O=C(C1CCCCC1)N1c2c(F)cccc2CCC1CN1CCN(c2cccc3[nH]ccc23)CC1 (stereo not drawn) [Example 38, 1-(1-Cyclohexanecarbonyl-8-fluoro-1,2,3,4-tetrahydroquinoline-2-ylmethyl)-4-(4-indolyl)piperazine]",0.0173
13,"Cc1ccc(S(=O)(=O)n2ccc(C(=O)N3c4ccccc4CCC3CN3CCN(c4cccc5[nH]ccc45)CC3)c2)cc1 (stereo not drawn) [Example 68A57, 1-(4-Indolyl)-4-[1-[1-(4-methylphenylsulphonyl)pyrrole-3-carbonyl]-1,2,3,4-tetrahydroquinoline-2-ylmethyl]piperazine]",0.033
14,"Cc1ccc(S(=O)(=O)N2c3ccccc3CCC2CN2CCN(c3cccc4[nH]ccc34)CC2)cc1 (stereo not drawn) [Example 70A3, 1(4-Indolyl)-4-[1-(4-methylphenylsulphonyl)-1,2,3,4-tetrahydroquinoline-2-ylmethyl]piperazine]",0.0152
15,"COc1ccc(C(=O)N2c3ccccc3CCC2CN(C)CCOc2ccccc2OC)cc1 (stereo not drawn) [Example 77A5, N-[1-(4-Methoxybenzoyl)-1,2,3,4-tetrahydroquinolin-2-ylmethyl]-N-[2-(2-methoxyphenoxy)ethyl]methylamine]",0.0131
16,"CN(CC(=O)N1c2ccccc2CCC1CN1CCN(c2cccc3[nH]ccc23)CC1)C(=O)c1ccccc1 (stereo not drawn) [Example 68A46, 1-[1-[2-(N-Benzoyl-N-methylamino)acetyl]-1,2,3,4-tetrahydroquinoline-2-ylmethyl]-4-(4-indolyl)piperazine]",0.0349
17,"O=C(C1CCC(O)CC1)N1c2ccccc2CCC1CN1CCN(c2cccc3[nH]ccc23)CC1 (stereo not drawn) [Example 44, (Z)-1-[1-(4-Hydroxycyclohexanecarbonyl)-1,2,3,4-tetrahydroquinoline-2-ylmethyl]-4-(4-indolyl)piperazine]",0.03

row,Compound,Ki [µM]
1,"O=S(=O)(Cc1ccccc1)N1c2ccccc2CCC1CN1CCN(c2cccc3[nH]ccc23)CC1 (stereo not drawn) [Example 70A6, 1-(4-Indolyl)-4-(1-phenylmethylsulphonyl-1,2,3,4-tetrahydroquinoline-2-ylmethyl)piperazine]",0.0047
2,"O=C(N1CCCCC1)N1c2ccccc2CCC1CN1CCN(c2cccc3[nH]ccc23)CC1 (stereo not drawn) [Example 36, 1-(4-Indolyl)-4-(1-piperidinocarbonyl-1,2,3,4-tetrahydroquinoline-2-ylmethyl)piperazine]",0.0156
3,"1-(2-Ethylbutanoyl-1,2,3,4-tetrahydroquinoline-2-ylmethyl)-4-(4-indolyl)piperazine [Example 24A]",0.0129
4,"CCc1ccccc1N1CCN(CC2CCc3ccccc3N2C(=O)C2CCCCC2)CC1 (stereo not drawn) [Example 72A11, 1-(1-Cyclohexanecarbonyl-1,2,3,4-tetrahydroquinolin-2-ylmethyl)-4-(2-ethylphenyl)piperazine]",0.0077
5,"O=C(CC1CC1)N1c2ccccc2CCC1CN1CCN(c2nccc3ccccc23)CC1 (stereo not drawn) [Example 75A2, 1-[1-(2-Cyclopropylacetyl)-1,2,3,4-tetrahydroquinolin-2-ylmethyl]-4-(1-isoquinolinyl)piperazine]",0.0101
6,"O=S(=O)(c1ccccc1)N1c2ccccc2CCC1CN1CCN(c2cccc3[nH]ccc23)CC1 (stereo not drawn) [Example 70A, 1-(4-Indolyl)-1-[1-phenylsulphonyl-1,2,3,4-tetrahydroquinoline-2-ylmethyl]piperazine]",0.0078
7,"O=C(CCCOc1ccccc1)N1c2ccccc2CCC1CN1CCN(c2nccc3ccccc23)CC1 (stereo not drawn) [Example 75A11, 1-(1-Isoquinolinyl)-4-[1-(4-phenoxybutanoyl)-1,2,3,4-tetrahydroquinolin-2-ylmethyl]piperazine]",0.0171
8,"CN(CCOc1cccc2cccnc12)CC1CCc2ccccc2N1C(=O)C1CCCCC1 (stereo not drawn) [Example 72A87, N-(1-Cyclohexanecarbonyl-1,2,3,4-tetrahydroquinolin-2-ylmethyl)-2-(8-quinolyloxy)ethylmethylamine]",0.0039
9,"O=C(NCc1ccccc1)N1c2ccccc2CCC1CN1CCN(c2cccc3[nH]ccc23)CC1 (stereo not drawn) [Example 69A9, 1-(1-Benzylaminocarbonyl-1,2,3,4-tetrahydroquinoline-2-ylmethyl)-4-(4-indolyl)piperazine]",0.0255
10,"O=C(Cc1ccccc1Cl)N1c2ccccc2CCC1CN1CCN(c2cccc3[nH]ccc23)CC1 (stereo not drawn) [Example 68A45, 1-[1-[2-(2-Chlorophenylacetyl)]-1,2,3,4-tetrahydroquinoline-2-ylmethyl]-4-(4-indolyl)piperazine]",0.0086
11,"O=C(c1ccco1)N1c2ccccc2CCC1CN1CCN(c2nccc3ccccc23)CC1 (stereo not drawn) [Example 75A4, 1-[1-(2-Furancarbonyl)-1,2,3,4-tetrahydroquinolin-2-ylmethyl]-4-(1-isoquinolinyl)piperazine]",0.0146
12,"COc1ccc(CC(=O)N2c3ccccc3CCC2CN2CCN(c3cccc4[nH]ccc34)CC2)cc1 (stereo not drawn) [Example 68A43, 1-(4-Indolyl)-4-[1-[2-(4-methoxyphenylacetyl)]-1,2,3,4-tetrahydroquinoline-2-ylmethyl]piperazine]",0.0427
13,"CC(C)(C)OC(=O)NCCC(=O)N1c2ccccc2CCC1CN1CCN(c2cccc3[nH]ccc23)CC1 (stereo not drawn) [Example 71A1, 1-[1-(3-tert-Butoxycarbonylamino)propionyl-1,2,3,4-tetrahydroquinoline-2-ylmethyl]-4-(4-indolyl)piperazine]",0.0152
14,O=C(C1CCC1)N1c2ccccc2CCC1CN1CCN(c2cccc3c2OCCO3)CC1 (stereo not drawn) [Example 76A8],0.0192
15,"COc1cc(F)ccc1N1CCN(CC2CCc3ccccc3N2C(=O)Cc2cccs2)CC1 (stereo not drawn) [Example 74A8, 1-(4-Fluoro-2-methoxyphenyl)-4-[1-(2-thienylacetyl)-1,2,3,4-tetrahydroquinolin-2-ylmethyl]piperazine]",0.0059
16,"O=C(C1CCCCC1)N1c2ccccc2CCC1CN1CCN(Cc2ccccc2Cl)CC1 (stereo not drawn) [Example 35A34, 1-(2-Chlorobenzyl)-4-(1-cyclohexanecarbonyl-1,2,3,4-tetrahydroquinoline-2-ylmethyl)piperazine]",0.0123
